The target in the test is T1, Angiotensin II receptor (AT-1) type-1 (Rattus norvegicus, UniProt P29089+P25095).
T1 sequence (P29089 whole entry): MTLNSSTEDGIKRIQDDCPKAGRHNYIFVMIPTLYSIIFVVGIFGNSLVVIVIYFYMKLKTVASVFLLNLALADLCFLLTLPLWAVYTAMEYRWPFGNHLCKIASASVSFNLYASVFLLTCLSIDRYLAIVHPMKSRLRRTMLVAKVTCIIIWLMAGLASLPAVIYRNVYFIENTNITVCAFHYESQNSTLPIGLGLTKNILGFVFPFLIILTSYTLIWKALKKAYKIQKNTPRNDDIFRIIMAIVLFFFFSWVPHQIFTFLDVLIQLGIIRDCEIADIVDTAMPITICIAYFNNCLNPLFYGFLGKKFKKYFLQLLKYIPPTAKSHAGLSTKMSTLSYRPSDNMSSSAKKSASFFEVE
T1 sequence (P25095 whole entry): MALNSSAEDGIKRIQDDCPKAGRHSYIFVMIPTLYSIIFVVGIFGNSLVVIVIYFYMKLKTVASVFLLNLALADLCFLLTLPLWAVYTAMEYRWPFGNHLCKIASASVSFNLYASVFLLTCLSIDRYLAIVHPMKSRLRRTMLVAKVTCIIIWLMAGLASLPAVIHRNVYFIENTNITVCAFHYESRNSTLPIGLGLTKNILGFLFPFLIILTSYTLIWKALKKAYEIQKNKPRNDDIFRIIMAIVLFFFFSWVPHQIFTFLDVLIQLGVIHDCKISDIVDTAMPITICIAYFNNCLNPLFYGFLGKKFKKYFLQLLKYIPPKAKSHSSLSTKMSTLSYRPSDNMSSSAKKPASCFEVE
Description: Displacement of [125I]-Ang II from rat liver membrane angiotensin II type 1 (AT1) receptor.

In ChEMBL document CHEMBL1139433 (J Med Chem, 2004) one finds Ki data, which are given here for one compound.

Square brackets hold non-standard residues; d marks the D form. Peptide text beside a SMILES is read from it. Phe(4-NH2) = Nc1ccc(C[C@H](N)C(=O)O)cc1

In the case of `CC[C@H](C)[C@H](NC(=O)[C@H](Cc1ccc(O)cc1)NC(=O)[C@@H](NC(=O)[C@H](CCCN=C(N)N)NC(=O)[C@@H](N)CC(=O)O)C(C)C)C(=O)N[C@@H](Cc1ccc(N)cc1)C(=O)N1CCC[C@H]1C(=O)N[C@@H](Cc1ccccc1)C(=O)O` (H-DRVYI[Phe(4-NH2)]PF-OH), the inhibition constant (Ki) was above 10 µM.
